Values of other authors as cited in patent US20120302647A1, “SYNTHESIS OF MAGNOLOL AND ITS ANALOGUE COMPOUNDS” (INDIAN INSTITUTE OF CHEMICAL TECHNOLOGY, priority 2010, published 2012).

Tests used:
[1] = tested on: cortical neuron-astrocyte mixed cultures; settings: chemical hypoxia by KCN
[2] = times greater than α-tocopherol

What does the source list for `C=CCc1ccc(O)c(-c2cc(CC=C)ccc2O)c1` [magnolol, 5,5′-diallylbiphenyl-2,2′-diol]?
protection of neurons against chemical hypoxia [1]: protects neurons against chemical hypoxia by KCN; antioxidant activity relative to α-tocopherol [2]: 1000 times; protection of the myocardium against infarction and reperfusion injury (myocardium): protecting the myocardium against infarction and reperfusion injury
